# Measured values reported in patent publication US20240398774A1, “METHODS OF TREATING INFLAMMATORY DISEASES WITH A SELECTIVE GLUCOCORTICOID RECEPTOR MODULATOR” (ASTRAZENECA AB, priority 2021, published 2024).
# Legend:
# [1] = system: joint inflammation; test: rat model of joint inflammation; type: in vivo; conditions: compared with prednisolone
# [2] = system: lipopolysaccharide (LPS)-stimulated tumour necrosis factor-α (TNFα) release; test: ex vivo inhibition of LPS-stimulated TNFα release in human whole blood; type: cell-based; conditions: compared with prednisolone
# [3] = system: transcription of tyrosine aminotransferase (TAT); test: TAT transcription in human hepatocytes in vitro; type: cell-based; conditions: for upregulation of transcription of tyrosine aminotransferase (TAT): human hepatocytes in vitro
# [4] = Continuous Glucose Monitoring (CGM) in type 2 diabetes patients, clinical trial NCT04556760; type: in vivo, human
# Procedure: (§1) Patient population. In clinical trial NCT04556760, eligible patients were 18 to 75 years old. Eligible patients had diagnosis of type 2 diabetes mellitus for 6 months prior to screening, such as HbAlc in the diabetes range or fasting plasma glucose 126-220 mg/dL. Eligible patients were on stable metformin therapy for at least 4 weeks, where no significant dose change (increase or decrease≥500 mg/day) has occurred prior to screening and HbAlc 6%-9.5%, or on dual therapy with metformin in combination with SGLT2i or DPP4i and HbAlc 6%-8%. Participants on dual therapy required 2 weeks wash-out of SGLT2i or DPP4i.
# (§2) Study design. This was a randomized, double blind, multi-center, double dummy, and two-way cross-over study. The aim of the study was to compare the effect on glycaemic control and incretin response at equipotent doses of AZD9567 and prednisolone in diabetes patients. The AZD9567 and prednisolone doses were predicted to be equipotent, based on an ex vivo efficacy analysis from previous phase 1 studies. The study consisted of a total of three cohorts. Each cohort was treated for two 72-hour periods in a cross-over design, with a 3-week washout period between treatment periods as illustrated in FIG. 1. The total length of participant engagement (from screening to follow-up) is 79 days.
# (§3) Cohort 1 included 27 patients. The patents were randomized in a ratio of 1:1 to receive 72 mg/day (oral suspension) AZD9567 and 40 mg/day prednisolone over two 72 hour periods in a cross over design: 72 mg AZD9567 for 3 consecutive days of each treatment period followed by 40 mg prednisolone for 3 consecutive days of each treatment period [AB sequence group], or 40 mg prednisolone for 3 consecutive days of each treatment period followed by 72 mg AZD9567 for 3 consecutive days of each treatment period [BA sequence group].
# Cohort 2 included 8 patients. The patents were randomized in a ratio of 1:1 to receive 40 mg/day (oral suspension) AZD9567 and prednisolone over two 72 hour periods in a cross over design: 40 mg AZD9567 for 3 consecutive days of each treatment period followed by 20 mg prednisolone for 3 consecutive days of each treatment period [AB sequence group] or 20 mg prednisolone for 3 consecutive days of each treatment period followed by 40 mg AZD9567 for 3 consecutive days of each treatment period [BA sequence group].
# Cohort 3 included 9 patients. The patents were randomized in a ratio of 1:1 to receive placebo and 5 mg/day prednisolone over two 72 hour periods in a cross over design: placebo for 3 consecutive days of each treatment period followed by 5 mg prednisolone for 3 consecutive days of each treatment period [AB sequence group] or 5 mg prednisolone for 3 consecutive days of each treatment period followed by placebo for 3 consecutive days of each treatment period [BA sequence group]).
# CGM includes a normal diet and is reflective of daily glucose control under “real world” conditions. […]
# [5] = Mixed Meal Tolerance Test (MMTT) in type 2 diabetes patients, clinical trial NCT04556760; type: in vivo, human; conditions: for MMTT-stimulated insulin secretion / glucagon secretion after MMTT: Cohort 1, Day 4
# Procedure: as §1, §2, §3
# MMTT provides a fixed composition of protein, carbohydrates and fat, and is meant to mimic “normal” meal. It generally consists of 30.2 g protein, 19.6 g of fat, 75 g of carbohydrates with 6.6. g of fiber, totaling 612 kCal. It requires a standardized dinner the night before the test, 12 h fasting prior to the test, and standardized breakfast consumed (<30 min) at 7 AM (solid meal) consisting of pre-determined quantities of carbohydrates, proteins and fats. Sampling is done at −15, 10, 20, 30, 60, 75, 120, 180, and 240 min.
# The primary endpoint was change in glucose AUC (0-4 h) versus baseline compared to prednisolone following a standardized mixed meal tolerance test (MMTT) on Days −1, 4, 27, and 31. The change from baseline in glucose AUC (0-4 h) was analyzed using a mixed model repeated measures (MMRM) with baseline included as covariate. […]
# [6] = system: hypothalamic-pituitary-adrenal (HPA) axis; test: morning serum cortisol and adrenocorticotropic hormone in type 2 diabetes patients; type: in vivo, human
# Procedure: as §2
# as §3, with “group]. […]” for “group].”
# [7] = plasma pharmacokinetics in diabetic patients; type: in vivo, human; conditions: oral dosing
# Procedure: as §2, with “days. […]” for “days.”
# [8] = safety and clinical outcomes in patients; type: in vivo, human
structure (smiles),measurement,setting,value
"CC(C)[C@H](NC(=O)C(C)(F)F)[C@H](Oc1ccc2c(cnn2-c2ccc(=O)n(C)c2)c1)c1ccccc1 [AZD9567, 2,2-difluoro-N-[(1R,2S)-3-methyl-1-[1-(1-methyl-6-oxopyridin-3-yl)indazol-5-yl]oxy-1-phenylbutan-2-yl]propanamide]",anti-inflammatory effects in vivo in a rat model of joint inflammation,[1],similar
same,inhibition of LPS-stimulated TNFα release,[2],similar
same,effect on prednisolone-induced upregulation of TAT transcription,[3]; coadministered with prednisolone in primary human hepatocytes,dose-dependently reduces
same,upregulation of transcription of tyrosine aminotransferase (TAT),[3],does not upregulate
same,increase in mean daily glucose relative to glycaemic targets for type 2 diabetes patients (70-180 mg/dl),"[4]; Cohort 1, 72 mg/day",within glycaemic targets
same,HbAlc difference corresponding to mean daily glucose difference between AZD9567 and prednisolone,"[4]; Cohort 1, 48-72 h, based on estimated Average Glucose (eAG) equation",0.7%
same,mean daily glucose increase as compared to prednisolone,[4]; Cohort 1: 72 mg/day AZD9567 vs 40 mg/day prednisolone,significantly lower
same,differentiation on glycaemic control versus prednisolone (CGM),"[4]; Cohort 1: 72 mg/day AZD9567 vs 40 mg/day prednisolone, 3 days",clear and consistent differentiation
same,HbAlc difference corresponding to mean daily glucose difference between AZD9567 and prednisolone,"[4]; Cohort 2, lower dose, based on eAG equation",0.4%
same,mean daily glucose increase as compared to prednisolone,[4]; Cohort 2: 40 mg/day AZD9567 vs 20 mg/day prednisolone,lower
same,differentiation on glycaemic control versus prednisolone (CGM),"[4]; Cohort 2: 40 mg/day AZD9567 vs 20 mg/day prednisolone, relative to Cohort 1",lower
same,observed difference in mean daily glucose (CGM) vs prednisolone,"[4]; at 48-72 hrs, Target Value 1.221 mmol/L, Lower Reference Value 0.599 mmol/L",1.507 mmol/L
same,difference in reduction of glucose AUC0-4h after MMTT (AZD9567 vs prednisolone),"[5]; Cohort 1, 24 h after last dose (Day 4), 95CI 0.01, 8.88, p=0.05",4.54%
same,MMTT-stimulated insulin secretion,[5],increased
same,glucagon secretion after MMTT,[5],unaffected
same,insulin:glucagon ratio,"[5]; Cohort 1, MMTT, vs prednisolone",marked improvement
same,absolute difference in reduction of glucose AUC0-4h after MMTT (AZD9567 vs prednisolone),"[5]; Cohort 1, 95% CI 9.40, 256.1, p=0.036",132.95 mmol·min/L
same,adrenocorticotropic hormone (ACTH) concentrations,"[6]; Cohort 1, change from baseline",indicative of preserved hypothalamic-pituitary-adrenal (HPA) axis capacity
same,cortisol change during treatment,"[6]; Cohort 1, returning to baseline at follow-up","marked, target-related, reversible cortisol suppression"
same,elimination half-life in diabetic patients as compared to healthy volunteers in phase 1 study,[7],increased
same,systemic exposure in diabetic patients as compared to healthy volunteers in phase 1 study,[7],higher
same,safety concerns following the analysis of Cohort 1,"[8]; Cohort 1, 72 mg/day for 3 days",No significant new safety concerns
same,"rate of treatment intensification (dose increase of current oral antidiabetic therapy, or start/addition of insulin) as compared to prednisone",[8]; diagnosed diabetic patients,lower rate
same,incidence of hospitalization vs prednisone,[8]; heart failure patients,lower incidence
same,incidence of progression to type 2 diabetes mellitus as compared to prednisone,[8]; population predisposed to type 2 diabetes mellitus,lower incidence
"C[C@]12C=CC(=O)C=C1CC[C@@H]1[C@@H]2[C@@H](O)C[C@@]2(C)[C@H]1CC[C@]2(O)C(=O)CO [prednisolone, reference compound]",upregulation of transcription of tyrosine aminotransferase (TAT),[3],upregulation
same,differentiation on glycaemic control vs placebo on CGM,[4]; Cohort 3: 5 mg/day prednisolone vs placebo,No differentiation
same,MMTT-stimulated insulin secretion,[5],lower
same,glucagon secretion after MMTT,[5],increased
same,systemic exposure in diabetic patients as compared to healthy volunteers in phase 1 study,[7],higher
